Measurements published in patent US20070128217A1 (priority 2003, published 2007).

Columns and labels:
[1] = test system: control sera (pooled serum of ten healthy LUMC hospital workers; commercial negative donor pooled serum from the Dutch bloodbank); type: binding, human; parameters: Binding of Control serum LUMC to linear peptides / Binding of Control serum Blood-bank to linear peptides / Binding of Control serum LUMC to looped peptides / Binding of Control Serum Blood-Bank to Looped peptides / Binding of Control serum LUMC to linear peptides of the protein M of SARS-CoV Urbani / Binding of Control serum Blood-bank to linear peptides of the protein M of SARS-CoV Urbani / Binding of Control serum LUMC to looped peptides of the protein M of SARS-CoV Urbani / Binding of Control Serum Blood-Bank to Looped peptides of the protein M of SARS-CoV Urbani: unit not given here
[2] = test system: rabbit serum obtained by immunizing a rabbit with the SARS-CoV strain Frankfurt 1; type: binding; parameters: Binding of a rabbit serum to linear peptides / Binding of a rabbit serum to looped peptides / Rabbit serum linear peptides / Rabbit serum looped peptides / Binding of a rabbit serum to linear peptides of protein N of SARS-CoV Urbani (Rabbit serum linear peptides) / Binding of a rabbit serum to looped/cyclic peptides of protein N of SARS-CoV Urbani (Rabbit serum looped peptides): unit not given here
[3] = test system: antibodies in sera from SARS patients (sera 1a, 1b, 2, 6, 37, 62, London, SARS-yellow, SARS-green); type: binding, human; parameters: Binding of serum 6 to linear peptides of protein X1 of SARS-CoV Urbani / Binding of serum 37 to linear peptides of protein X1 of SARS-CoV Urbani / Binding of serum 6 to looped/cyclic peptide (PEPSCAN-ELISA) / Binding of serum 37 to looped/cyclic peptide (PEPSCAN-ELISA) / Binding of serum 37 to looped/cyclic peptides of protein X1 of SARS-CoV Urbani / Binding of serum 6 to linear peptides of protein X2 / Binding of serum 37 to linear peptides of protein X2 / Binding of serum 37 to looped/cyclic peptides of protein X2 of SARS-CoV Urbani / Binding of serum 6 to linear peptides of protein M of SARS-CoV Urbani / Binding of serum 37 to linear peptides of protein M of SARS-CoV Urbani / Binding of serum 6 to looped/cyclic peptides of protein M of SARS-CoV Urbani / Binding of serum 37 to looped/cyclic peptides of protein M of SARS-CoV Urbani / Binding of serum 6 to linear peptides of protein X3 of SARS-CoV Urbani / Binding of serum 37 to linear peptides of protein X3 of SARS-CoV Urbani / Binding of serum 37 to looped/cyclic peptides of protein X3 of SARS-CoV Urbani / Binding of serum 6 to linear peptides of protein X4 of SARS-CoV Urbani / Binding of serum 37 to linear peptides of protein X4 of SARS-CoV Urbani / Binding of serum 37 to looped/cyclic peptides of protein X4 of SARS-CoV Urbani / Binding of serum 6 to linear peptides of protein X5 of SARS-CoV Urbani / Binding of serum 37 to linear peptides of protein X5 of SARS-CoV Urbani / Binding of serum 37 to looped/cyclic peptides of protein X5 of SARS-CoV Urbani / Binding of serum 6 to linear peptides of protein N of SARS-CoV Urbani / Binding of serum 37 to linear peptides of protein N of SARS-CoV Urbani / Binding of serum 6 to linear peptide (PEPSCAN-ELISA) / Binding of serum 1a to looped/cyclic peptides of protein N of SARS-CoV Urbani / Binding of serum 1b to looped/cyclic peptides of protein N of SARS-CoV Urbani / Binding of serum 2 to looped/cyclic peptides of protein N of SARS-CoV Urbani / Binding of serum 6 to looped/cyclic peptides of protein N of SARS-CoV Urbani / Binding of serum 37 to looped/cyclic peptides of protein N of SARS-CoV Urbani / Binding of serum 62 to looped/cyclic peptides of protein N of SARS-CoV Urbani / Binding of serum London to looped/cyclic peptides of protein N of SARS-CoV Urbani / Binding of serum SARS-green to looped/cyclic peptides of protein N of SARS-CoV Urbani: unit not given here

## ASLPFGWLVIGVAFL
[1]
  Binding of Control Serum Blood-Bank to Looped peptides: 0.4
  Binding of Control serum Blood-bank to linear peptides: 0.6
  Binding of Control serum LUMC to linear peptides: 0.6
  Binding of Control serum LUMC to looped peptides: 0.6
[2]
  Binding of a rabbit serum to linear peptides: 1.4
  Binding of a rabbit serum to looped peptides: 0.3
[3]
  Binding of serum 1a to linear peptides of protein X1 of SARS-CoV Urbani: 0.7
  Binding of serum 1a to looped/cyclic peptide (PEPSCAN-ELISA): 0.5
  Binding of serum 1b to linear peptides of protein X1 of SARS-CoV Urbani: 0.5
  Binding of serum 1b to looped/cyclic peptide (PEPSCAN-ELISA): 0.3
  Binding of serum 2 to linear peptides of protein X1 of SARS-CoV Urbani: 0.6
  Binding of serum 2 to looped/cyclic peptide (PEPSCAN-ELISA): 0.4
  Binding of serum 6 to linear peptides of protein X1 of SARS-CoV Urbani: 0.5
  Binding of serum 6 to looped/cyclic peptide (PEPSCAN-ELISA): 0.2
  Binding of serum 37 to linear peptides of protein X1 of SARS-CoV Urbani: 0.6
  Binding of serum 37 to looped/cyclic peptide (PEPSCAN-ELISA): 0.3
  Binding of serum 62 to linear peptides of protein X1 of SARS-CoV Urbani: 0.6
  Binding of serum 62 to looped/cyclic peptide (PEPSCAN-ELISA): 0.4
  Binding of serum London to linear peptides of protein X1 of SARS-CoV Urbani: 0.3
  Binding of serum London to looped/cyclic peptide (PEPSCAN-ELISA): 0.2
  Binding of serum SARS-green to linear peptides of protein X1 of SARS-CoV Urbani: 0.2
  Binding of serum SARS-green to looped/cyclic peptide (PEPSCAN-ELISA): 0.2
  Binding of serum SARS-yellow to linear peptides of protein X1 of SARS-CoV Urbani: 0.4
  Binding of serum SARS-yellow to looped/cyclic peptide (PEPSCAN-ELISA): 0.3

## CADGTRHTYQLRARS
[1]
  Binding of Control Serum Blood-Bank to Looped peptides: 0.5
  Binding of Control serum Blood-bank to linear peptides: 0.7
  Binding of Control serum LUMC to linear peptides: 0.5
  Binding of Control serum LUMC to looped peptides: 0.6
[2]
  Recognition of the peptide by the rabbit serum: recognized
[3]
  Binding of serum 1a to linear peptides of protein X4 of SARS-CoV Urbani: 0.6
  Binding of serum 1a to looped/cyclic peptides of protein X4 of SARS-CoV Urbani: 0.7
  Binding of serum 1b to linear peptides of protein X4 of SARS-CoV Urbani: 0.5
  Binding of serum 1b to looped/cyclic peptides of protein X4 of SARS-CoV Urbani: 0.4
  Binding of serum 2 to linear peptides of protein X4 of SARS-CoV Urbani: 0.5
  Binding of serum 2 to looped/cyclic peptides of protein X4 of SARS-CoV Urbani: 0.8
  Binding of serum 6 to linear peptides of protein X4 of SARS-CoV Urbani: 0.6
  Binding of serum 6 to looped/cyclic peptides of protein X4 of SARS-CoV Urbani: 0.6
  Binding of serum 37 to linear peptides of protein X4 of SARS-CoV Urbani: 0.7
  Binding of serum 37 to looped/cyclic peptides of protein X4 of SARS-CoV Urbani: 0.7
  Binding of serum 62 to linear peptides of protein X4 of SARS-CoV Urbani: 0.7
  Binding of serum 62 to looped/cyclic peptides of protein X4 of SARS-CoV Urbani: 0.6
  Binding of serum London to linear peptides of protein X4 of SARS-CoV Urbani: 0.8
  Binding of serum London to looped/cyclic peptides of protein X4 of SARS-CoV Urbani: 0.3
  Binding of serum SARS-green to linear peptides of protein X4 of SARS-CoV Urbani: 0.6
  Binding of serum SARS-green to looped/cyclic peptides of protein X4 of SARS-CoV Urbani: 0.0
  Binding of serum SARS-yellow to linear peptides of protein X4 of SARS-CoV Urbani: 0.7
  Binding of serum SARS-yellow to looped/cyclic peptides of protein X4 of SARS-CoV Urbani: 0.6

## CDIKDLPKEITVATS
[1]
  Binding of Control Serum Blood-Bank to Looped peptides of the protein M of SARS-CoV Urbani: 0.6
  Binding of Control serum Blood-bank to linear peptides of the protein M of SARS-CoV Urbani: 0.4
  Binding of Control serum LUMC to linear peptides of the protein M of SARS-CoV Urbani: 0.2
  Binding of Control serum LUMC to looped peptides of the protein M of SARS-CoV Urbani: 0.7
[2]
  Rabbit serum linear peptides: 0.4
  Rabbit serum looped peptides: 0.6
[3]
  Binding of serum 1a to linear peptides of protein M of SARS-CoV Urbani: 0.6
  Binding of serum 1a to looped/cyclic peptides of protein M of SARS-CoV Urbani: 0.6
  Binding of serum 1b to linear peptides of protein M of SARS-CoV Urbani: 0.3
  Binding of serum 1b to looped/cyclic peptides of protein M of SARS-CoV Urbani: 0.3
  Binding of serum 2 to linear peptides of protein M of SARS-CoV Urbani: 0.3
  Binding of serum 2 to looped/cyclic peptides of protein M of SARS-CoV Urbani: 0.6
  Binding of serum 6 to linear peptides of protein M of SARS-CoV Urbani: 0.3
  Binding of serum 6 to looped/cyclic peptides of protein M of SARS-CoV Urbani: 0.5
  Binding of serum 37 to linear peptides of protein M of SARS-CoV Urbani: 0.5
  Binding of serum 37 to looped/cyclic peptides of protein M of SARS-CoV Urbani: 0.6
  Binding of serum 62 to linear peptides of protein M of SARS-CoV Urbani: 0.7
  Binding of serum 62 to looped/cyclic peptides of protein M of SARS-CoV Urbani: 0.6
  Binding of serum London to linear peptides of protein M of SARS-CoV Urbani: 0.3
  Binding of serum London to looped/cyclic peptides of protein M of SARS-CoV Urbani: 0.2
  Binding of serum SARS-green to linear peptides of protein M of SARS-CoV Urbani: 0.2
  Binding of serum SARS-green to looped/cyclic peptides of protein M of SARS-CoV Urbani: 0.4
  Binding of serum SARS-yellow to linear peptides of protein M of SARS-CoV Urbani: 0.0
  Binding of serum SARS-yellow to looped/cyclic peptides of protein M of SARS-CoV Urbani: 0.6
